Experiment [1] relates to IIIB strain of HIV-1 (WT). Description: Anti-HIV-1 activity in infected MT-2 human T-cells, MTT colorimetric method. The experiment is classed as cell-based. Conditions: for gain in potency: in going from 1.
In a further experiment the test system is WT HIV-1. As to conditions: cited from earlier work.
The subject of experiment [2] is HIV-1 K103N/Y181C variant. Conditions: read-out: EC50 K103N/Y181C; Literature data, MT4 cells; cited from earlier work.
Experiment [3] concerns HIV-1 Y181C variant. Conditions: read-out: EC50 Y181C; Literature data, MT4 cells; cited from earlier work.
For experiment [4], the system named is HIV-1 Y181C variant. As to conditions: read-out: activity for the Y181C-containing variant; cited from earlier work.
[5] abbreviates: read-out: activity for WT HIV-1.

The values below come from publication PMC3258498 (Journal of Medicinal Chemistry, 2011).

Values joined by “and” are separate entries in the source; they are usually repeats but may differ in a detail not shown here. Equal entries are not always repeated. Where two headings read alike, the source gives them in different places. A value given as a limit tells only on which side of the number the result lay.

`O=c1ccn(CCOc2ccc(Cl)cc2Cc2cc(Cl)ccc2Cl)c(=O)[nH]1` [compound 10]: in experiment [1], the gain in potency result is on record as “ca. 15 fold”.

For the compound `Cc1cc(C)cc(Oc2c(CSCc3ccco3)c(C)[nH]c(=O)c2I)c1` [compound 3], the EC50 in the experiment on WT HIV-1 (read-out: activity towards WT HIV-1) is 1 to 10 nM and 2 nM.

Take `Cc1ccnc2c1NC(=O)c1cccnc1N2C1CC1` [nevirapine]: the EC50 (in experiment [2]; in the experiment on HIV-1 Y181C variant [3]) was more than 10000 nM each time.

Take `CCc1c(C)[nH]c(=O)c(I)c1Oc1cccc(/C=C/C#N)c1` [compound 38]: the EC50 with HIV-1 Y181C variant [4] and in the experiment on WT HIV-1 (setting [5]) was less than 5 nM each time.

Consider `Cc1cc(/C=C/C#N)cc(C)c1Nc1ccnc(Nc2ccc(C#N)cc2)n1` [compound 39, 4-[[4-[[4-[(1E)-2-cyanoethenyl]-2,6-dimethylphenyl]amino]-2-pyrimidinyl]amino]benzonitrile], for which the EC50 with HIV-1 Y181C variant [4] and in the experiment on WT HIV-1 (setting [5]) was less than 5 nM in each case.

With `O=c1ccn(CCOc2ccc(Cl)cc2Cc2c(Cl)cccc2Cl)c(=O)[nH]1` [compound 11], the gain in potency entry in experiment [1] is reported as “ca. 15 fold”.

Regarding `N#Cc1ccc(Oc2cc(Cl)ccc2Cl)c(OCCc2ccncc2)c1` [compound 33], in experiment [1] (relative to 31), the “worsening of the EC50 value” amounted to 18 fold.
